Measurements as given in patent EP4810040A2, “INHIBITORS OF APOL1 AND METHODS OF USING SAME” (priority 2020, dated 2022).
Read-outs that look alike come from different tables or passages of the source.

Target: T1, APOL1 G1 (Homo sapiens, UniProt O14791, I384M/S342G)
T1 sequence (O14791 28-398 S342G/I384M): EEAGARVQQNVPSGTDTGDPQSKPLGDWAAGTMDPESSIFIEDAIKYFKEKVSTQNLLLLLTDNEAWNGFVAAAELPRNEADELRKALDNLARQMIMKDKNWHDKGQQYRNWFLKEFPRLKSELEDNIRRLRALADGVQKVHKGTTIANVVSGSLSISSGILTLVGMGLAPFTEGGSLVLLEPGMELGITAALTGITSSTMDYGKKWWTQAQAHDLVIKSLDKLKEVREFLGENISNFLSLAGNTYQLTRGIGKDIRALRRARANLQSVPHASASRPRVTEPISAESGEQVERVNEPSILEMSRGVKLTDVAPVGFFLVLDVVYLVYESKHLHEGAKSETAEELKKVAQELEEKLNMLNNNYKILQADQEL
Assay: MultiTox-Fluor Multiplex Cytotoxicity Assay, tet-inducible APOL1 G1 T-REx-HEK293 cells
Format: cell-based
Set-up: expressed in transfected cells; host or cells: T-REx HEK293, clone G1 DC3.25 (pAAVS1-Puro-APOL1 G1)
Conditions: for IC90: read-out: Multi-Tox Assay IC90; for Emax: read-out: Multi-Tox Assay Max Activity (%); for IC50: IP50 = IC50 for cell proliferation
How it was run: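 Over 24 h at 37 °C, compounds (10-point 3-fold series from 10 µM, duplicate) were co-incubated with 50 ng/mL tetracycline inducing APOL1 G1 in T-REx-HEK293 cells. Viability/cytotoxicity measured by MultiTox-Fluor as dead-to-live fluorescence ratio, expressed as percent of control between uninduced and induced wells and fitted.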

[1] = HEK293, Multi-Tox Assay, APOL1 variant (G0/G1/G2) of the HEK293 cells not given
[2] = Multi-Tox Assay, APOL1 variant not given
[3] = Multi-Tox Assay, APOL1 variant (G0/G1/G2) not stated in Table 46
[4] = Multi-Tox Assay, APOL1 variant not stated in Table 46

Row | Structure (SMILES) | IC90 [1] [µM] | Multi-Tox Assay Max Activity (%) [2] [%] | also measured
1 | COCC(O)Cn1cc([C@@H]2C[C@]3(C[C@H](C)N2)OCC(F)(F)c2cc(Cl)sc23)nn1 (some centres unmarked) [Compound 342] | 0.05 to 0.5 | 98.0 | –
2 | COc1ccc([C@@H]2C[C@]3(C[C@H](C)N2)OCCc2cc(Cl)sc23)cn1 (racemic) [Compound 49] | < 0.05 | – | Emax [2]: 99.7%
3 | C[C@H]1C[C@@]2(C[C@@H](c3cn(Cc4n[nH]c5ccccc45)nn3)N1)OCC(F)(F)c1cc(Cl)sc12 [Compound 349] | > 0.5 | 91.0 | –
4 | C[C@H]1C[C@@]2(C[C@@H](c3c[nH]c(C4CC4)n3)N1)OCCc1cc(Cl)sc12 (racemic) [Compound 130] | 0.05 to 0.5 | – | –
5 | C[C@H]1C[C@@]2(C[C@@H](c3cn(Cc4cccc(O)c4)nn3)N1)OCC(F)(F)c1cc(Cl)sc12 [Compound 320] | > 0.5 | 95.0 | –
6 | C[C@H]1C[C@@]2(C[C@@H](c3ncc(C(F)(F)F)[nH]3)N1)OCCc1cc(Cl)sc12 (racemic) [Compound 165] | > 0.5 | 92.0 | –
7 | C[C@H]1C[C@@]2(C[C@@H](c3cn(CCCS(C)(=O)=O)nn3)N1)OCC(F)(F)c1cc(Cl)sc12 [Compound 344] | 0.05 to 0.5 | – | –
8 | CNC(=O)c1cccc(C2CC3(CC(C)N2)OCCc2cc(Cl)sc23)c1 (centres unmarked) [Compound 27] | < 0.05 | 100.3 | –
9 | C[C@H]1C[C@@]2(C[C@@H](c3cn(Cc4cccc5c4OCCO5)nn3)N1)OCC(F)(F)c1cc(Cl)sc12 [Compound 310] | > 0.5 | 94.0 | –
10 | C[C@H]1C[C@@]2(C[C@@H](c3cn(Cc4cccc(O)c4)nn3)N1)OC[C@@H](O)c1cc(Cl)sc12 [Compound 279] | 0.05 to 0.5 | 97.0 | –
11 | C[C@H]1C[C@@]2(C[C@@H](c3cn(CC(C)(C)O)nn3)N1)OCC(F)(F)c1cc(Cl)sc12 [Compound 364] | – | – | IC90 [3]: > 0.5 µM; Multi-Tox Assay Max Activity (%) [4]: 95.0%; IC50 [4]: 0.05 to 0.5 µM
12 | C[C@H]1C[C@@]2(C[C@@H](c3cn(C)nn3)N1)OCC(F)(F)c1cc(Cl)sc12 [Compound 183, (2'S, 6'S, 7S)-2-chloro-4,4-difluoro-2'-methyl-6'-(1-methyltriazol-4-yl)spiro[5H-thieno[2,3-c]pyran-7,4'-piperidine]] | < 0.05 | – | Emax [2]: 99.5%
13 | C[C@H]1C[C@@]2(C[C@@H](c3cn(CC4CCC4)nn3)N1)OC[C@@H](O)c1cc(Cl)sc12 [Compound 250] | 0.05 to 0.5 | 95.0 | –
14 | Cc1coc([C@@H]2C[C@]3(C[C@H](C)N2)OCCc2cc(Cl)sc23)n1 (racemic) [Compound 155] | > 0.5 | 95.2 | –
15 | C[C@H]1C[C@@]2(C[C@@H](c3cn(Cc4ccc(OC5CCOCC5)cc4)nn3)N1)OCC(F)(F)c1cc(Cl)sc12 [Compound 308] | > 0.5 | 95.0 | –
16 | C[C@H]1C[C@@]2(C[C@@H](c3cn(CC#N)nn3)N1)OC[C@@H](O)c1cc(Cl)sc12 [Compound 255] | 0.05 to 0.5 | 100.0 | –
17 | CC1CC2(CC(c3cccc(C#N)c3)N1)OCCc1cc(Cl)sc12 (centres unmarked) [Compound 24] | < 0.05 | 100.0 | –
18 | CC(=O)NC1([C@@H]2C[C@]3(C[C@H](C)N2)OCCc2cc(Cl)sc23)CC1 [Compound 379, N-[1-[(2'S,6'S,7S)-2-chloro-6'-methyl-spiro[4,5-dihydrothieno[2,3-c]pyran-7,4'-piperidine]-2'-yl]cyclopropyl]acetamide] | – | – | IC90 [3]: > 0.5 µM; Multi-Tox Assay Max Activity (%) [4]: 94.0%
19 | CC(C)c1cc2c(s1)C1(C[C@@H](C)N[C@@H](C)C1)OCC2 (single isomer, unassigned) [Compound 200] | > 0.5 | – | Emax [2]: 97%
20 | CC1CC2(CC(C)N1)OCCc1cc(Cl)sc12 (mixture of isomers) [Compound 194, 2-chloro-2',6'-dimethyl-spiro[4,5-dihydrothieno[2,3-c]pyran-7,4'-piperidine]] | 0.05 to 0.5 | – | Emax [2]: 98.7%
21 | Cn1cc([C@@H]2C[C@]3(C[C@H](C4CC4)N2)OC[C@@H](O)c2cc(Cl)sc23)nn1 [Compound 382, (2'R,4S,6'S,7S)-2-chloro-2'-cyclopropyl-6'-(1-methyltriazol-4-yl)spiro[4,5-dihydrothieno[2,3-c]pyran-7,4'-piperidine]-4-ol] | – | – | IC90 [3]: 0.05 to 0.5 µM; Emax [4]: 100%

Row | Structure (SMILES) | IC90 [1] [µM] | Multi-Tox Assay Max Activity (%) [2] [%] | also measured
22 | CCC(O)Cn1cc([C@@H]2C[C@]3(C[C@H](C)N2)OC[C@@H](O)c2cc(Cl)sc23)nn1 (some centres unmarked) [Compound 284] | 0.05 to 0.5 | 101.0 | –
23 | C[C@H]1C[C@@]2(C[C@@H](c3cnc(N4CCN(C)CC4)nc3)N1)OCCc1cc(Cl)sc12 (racemic) [Compound 129] | 0.05 to 0.5 | 100.0 | –
24 | C[C@H]1C[C@@]2(C[C@@H](c3ccc[nH]c3=O)N1)OCCc1cc(Cl)sc12 (racemic) [Compound 121] | 0.05 to 0.5 | – | –
25 | C[C@H]1C[C@@]2(C[C@@H](c3cn(Cc4ccc(O)nc4)nn3)N1)OC[C@@H](O)c1cc(Cl)sc12 [Compound 275] | > 0.5 | 94.0 | –
26 | C[C@H]1C[C@@]2(C[C@@H](c3cn(CCCS(C)(=O)=O)nn3)N1)OC[C@@H](O)c1cc(Cl)sc12 [Compound 228] | 0.05 to 0.5 | 100.0 | –
27 | [2H][13C]([2H])([2H])n1cc([C@@H]2[13CH2][C@]3(C[C@H](C)N2)OC[C@@H](O)c2cc(C(F)(F)F)sc23)nn1 [Compound 386, (2S,4S,4'S,6S)-2-methyl-6-(1-(methyl-^13C-d3)-1H-1,2,3-triazol-4-yl)-2'-(trifluoromethyl)-4',5'-dihydrospiro[piperidine-4,7'-thieno[2,3-c]pyran]-5-^13C-4'-ol] | – | – | IC90 [3]: < 0.05 µM; Emax [4]: 100%
28 | Cc1nccn1CCCn1cc([C@@H]2C[C@]3(C[C@H](C)N2)OC[C@@H](O)c2cc(Cl)sc23)nn1 [Compound 251] | 0.05 to 0.5 | – | –
29 | CC(CO)Cn1cc([C@@H]2C[C@]3(C[C@H](C)N2)OCC(F)(F)c2cc(Cl)sc23)nn1 (some centres unmarked) [Compound 370] | – | – | IC90 [3]: 0.05 to 0.5 µM; IC50 [4]: 0.05 to 0.5 µM
30 | COCCOCCn1cc([C@@H]2C[C@]3(C[C@H](C)N2)OC[C@@H](O)c2cc(Cl)sc23)nn1 [Compound 229] | 0.05 to 0.5 | 98.0 | –
31 | CCOc1cc([C@@H]2C[C@]3(C[C@H](C)N2)OCCc2cc(Cl)sc23)ccc1O (racemic) [Compound 102] | < 0.05 | 99.8 | –
32 | COCCn1cc([C@@H]2C[C@]3(C[C@H](C)N2)OCC(F)(F)c2cc(Cl)sc23)nn1 [Compound 323] | 0.05 to 0.5 | 100.0 | –
33 | CC1CC2(CC(c3cnn(CCS(C)(=O)=O)c3)N1)OCCc1cc(Cl)sc12 (centres unmarked) [Compound 46] | < 0.05 | – | –
34 | C[C@H]1C[C@@]2(C[C@@H](c3ccc(C(=O)NC4CC4)cc3)N1)OCCc1cc(Cl)sc12 (racemic) [Compound 71] | < 0.05 | – | Emax [2]: 100%
35 | C[C@H]1C[C@@]2(C[C@@H](c3cn(C)nn3)N1)OCCc1cc(C(F)(F)F)sc12 [Compound 2, (2'S,6'S,7S)-2'-methyl-6'-(1-methyltriazol-4-yl)-2-(trifluoromethyl)spiro[4,5-dihydrothieno[2,3-c]pyran-7,4'-piperidine]] | < 0.05 | – | Emax [2]: 100%
36 | COc1ccc(C(O)Cn2cc([C@@H]3C[C@]4(C[C@H](C)N3)OCC(F)(F)c3cc(Cl)sc34)nn2)cc1 (some centres unmarked) [Compound 348] | > 0.5 | 97.0 | –
37 | Cc1cc(O)ncc1[C@@H]1C[C@]2(C[C@H](C)N1)OCCc1cc(Cl)sc12 (racemic) [Compound 125] | 0.05 to 0.5 | 99.7 | –
38 | C[C@H]1C[C@@]2(C[C@@H](c3cn(C)nn3)N1)OC[C@@H](O)c1sc(Cl)cc12 [Compound 182] | < 0.05 | – | Emax [2]: 100%
39 | CC(C)C1CC2(CC(c3cn(C)nn3)N1)OCCc1cc(C(F)(F)F)sc12 (centres unmarked) [Compound 191] | 0.05 to 0.5 | – | Emax [2]: 99.7%
40 | C[C@H]1C[C@@]2(C[C@@H](c3cn(CC4(O)CC4)nn3)N1)OC[C@@H](O)c1cc(Cl)sc12 [Compound 233] | 0.05 to 0.5 | 100.0 | –
41 | C[C@@H]1CC2(C[C@H](C)N1)OCCc1cc(C3CCCCC3)sc12 (single isomer, unassigned) [Compound 202] | > 0.5 | – | Emax [2]: 94.7%
42 | C[C@H]1C[C@@]2(C[C@@H](c3cn(Cc4cnccn4)nn3)N1)OC[C@@H](O)c1cc(Cl)sc12 [Compound 276] | 0.05 to 0.5 | 100.0 | –
